# According to patent publication US11672786B2, “Methods of treating diseases associated with repeat instability” (The Hospital for Sick Children, priority 2016, dated 2023):
# Several values for one entry are separate records, joined by “and”; a condition that tells them apart may be missing. Equal entries are not always repeated.
# Assays:
# [1] = tested on: HT1080-(CAG)850 contact inhibition; test: small-pool PCR repeat instability, non-proliferating HT1080-(CAG)850 cells under contact inhibition; type: cell-based, human; conditions: 50 uM NA, 30 days
# Procedure: The construction of the HT1080-(CAG)850 cell model was described previously (Sathasivam et al., 1997, Hum. Genet., 99:692-5). Briefly, HT1080 (ATCC) human fibrosarcoma cells were co-transfected with a plasmid (LC15-R) containing 800-850 (CTG)●(CAG) repeats (Nakatani et al., 2005, Nat. Chem. Biol., 1:39-43) and a plasmid encoding PhiC31 integrase. Transfection was performed with a Nucleofector (Lonza, Basel, Switzerland), and stably transfected clones were selected with puromycin. […] The HT1080-non-transcribing (CAG)850 cell model was established by transfecting a plasmid modified from pLC16 by inserting an additional SV40 polyadenylation signal downstream of the repeats (in addition to the original polyadenylation signals located upstream of the repeats), so that CAG/CTG repeats are floxed by transcription-terminator elements. The AttB-PhiC31 system has been widely used for single copy integration. […] The HT1080 model cells and an HD primary fibroblast cell line, GM09197 (Coriell Biorepository) with a large expanded allele of 180 CAG repeats and a non-expanded allele of 23 repeats (Sathasivam et al., 1997, Hum. Genet., 99:[…]), the HD primary fibroblast cell line, GM02191 (Coreill Biorepository) with an expanded allele of 43 CAG repeats and a non-expanded allele of 19 repeats, were cultured at 37° C. with 5% CO2 in Dulbecco's modified Eagle's medium supplemented with 10% fetal bovine serum and 1% penicillin/streptomycin. Cells were treated with or without continuous exposure to 50-μM NA for 30 days (HT1080 cells) or for 40 days (fibroblast cells). For experiments on non-proliferating cells, HT1080 cells were grown to confluence and then treated for the same period. WST-1 assay was performed according to the manufacturer's instructions (Roche, Basel, Switzerland). All cell lines were tested to be free of Mycoplasma. Three biological replicates were performed for each experiment.
# Proliferation was inhibited by growth under contact inhibition and serum starvation, as previously performed. Degree of arrest from proliferation was assessed in living cells by counting BrdU positive cells after 24 hrs incubation with BrdU in proliferating or contact-inhibited (and serum starved) HT1080-(CAG)850 cells. The percentage of BrdU positive cells was 92.6% in proliferating cells and 8.17% in contact-inhibited cells. Although a small portion of HT1080-(CAG)850 cells were still proliferating even under contact-inhibition and serum starvation, the ratio is very small. Based on a calculation how many cells derive from a single cell after 30 days (the period that was studied) (proliferating, 1.926^30=348653546.6; contact inhibition, 1.0817^30=10.55), the effect of proliferation in contact-inhibited cells can be ignored.
# Genomic DNA was extracted from HT1080-(CAG)850 clones and HD primary fibroblasts using the Gentra Puregene Cell Kit (Qiagen, Valencia, Calif.). The expanded (CTG)●(CAG) repeats were sized by small-pool PCR (sp-PCR) followed by Southern blot as described previously (Sathasivam et al., 1997, Hum. Genet., 99:692-5). For HT1080 models, small-pool PCR (spPCR) was performed with the input of 1.4-1.7 genome equivalents. The repeat size difference in the models is, at most, 3000 base-pairs, therefore, being strictly conservative, a bias toward amplifying the shorter allele can be possible, even under optimized PCR conditions described herein. For HD primary fibroblasts, sp-PCR & Southern blots were performed as described previously with slight modifications (Tome et al., 2013, PLoS Genet., 9:e1003280). Briefly, the PCR primers listed in Table 1 were used, and blots were hybridized with a DIG-labeled (CAG)7 locked nucleic acid probe (Nakamori et al. 2009, Neuromuscul. Disord., 19:759-62).
# [2] = tested on: CAG/CTG R-loops processed by neuron-like human SH-SY5Y cell extracts; test: R-loop processing by SH-SY5Y cell extracts, STRIP assay; type: biochemical; conditions: NA 50 μM; p=0.002
# Procedure: Double-R-loops were then treated with RNaseA or H (labeled “A” or “H”) and incubated with 50 μM of NA. Reaction products were then resolved on 1% agarose gel. […] Pre-formed double-R-loops were processed by terminally differentiated (retinoic acid) human neuron-like cell extracts (SH-SY5Y) in the absence or presence of NA (50 μM), as described and DNA repeat lengths were assessed as expansions, contractions, or stable, by the STRIP assay. […] Transcription products were isolated, processed and transformed in E. coli cells, previously shown to stably maintain the (CAG)79●(CTG)79 lengths. Plasmids isolated from individual bacterial colonies were digested with restriction enzymes to release the repeat containing fragment, resolved on 4% polyacrylamide gels and scored for instability.
# R-loop templates prepared from in vitro transcription and RNase A treatments were incubated with NA and then processed by extracts of HeLa or SH-SY5Y neuroblastoma cells, where the latter were terminally differentiated by retinoic acid, as previously described (Panigrahi et al., 2005, Nat. Struct. & Mol. Biol., 12:654-62). […] Miniprep DNA was analyzed for changes in repeat length by analysis of the repeat-containing fragment on 4% polyacrylamide gels. […]
# [3] = single experiments Ex 1-3, cut-off ±25 repeats
substance,measurement,setting,value
naphthyridine-azaquinolone,% Contraction,[1]; Total,53.3%
same,% Expansion,[1]; Total,16.6%
same,% Unchanged,[1]; Total,30.2%
same,Average Change of Repeat Size,[1]; Total,−90.9 number of repeats
same,% Unchanged,[1]; single experiments Ex 1-3,34.9% and 25.0% and 30.0%
same,% Contraction,[1]; [3],49.2% and 57.1% and 54.0%
same,% Expansion,[1]; [3],15.9% and 17.9% and 16.0%
same,"effect on R-loop processing products (contractions, expansions)",[2],significantly increasing the number of contraction products but not expansion products
